Test results: BindingDB's records for doi:10.1021/jm0009181 (National Center For Genetic Engineering and Biotechnology …, 2000)

Target: Bifunctional dihydrofolate reductase-thymidylate synthase (Plasmodium falciparum, UniProt A7UD81)
Experiment: Evaluated for inhibition constant (Ki wt) against Wild-type dihydrofolate reductase of Plasmodium falciparum

Sequence of Bifunctional dihydrofolate reductase-thymidylate synthase (A7UD81 whole entry): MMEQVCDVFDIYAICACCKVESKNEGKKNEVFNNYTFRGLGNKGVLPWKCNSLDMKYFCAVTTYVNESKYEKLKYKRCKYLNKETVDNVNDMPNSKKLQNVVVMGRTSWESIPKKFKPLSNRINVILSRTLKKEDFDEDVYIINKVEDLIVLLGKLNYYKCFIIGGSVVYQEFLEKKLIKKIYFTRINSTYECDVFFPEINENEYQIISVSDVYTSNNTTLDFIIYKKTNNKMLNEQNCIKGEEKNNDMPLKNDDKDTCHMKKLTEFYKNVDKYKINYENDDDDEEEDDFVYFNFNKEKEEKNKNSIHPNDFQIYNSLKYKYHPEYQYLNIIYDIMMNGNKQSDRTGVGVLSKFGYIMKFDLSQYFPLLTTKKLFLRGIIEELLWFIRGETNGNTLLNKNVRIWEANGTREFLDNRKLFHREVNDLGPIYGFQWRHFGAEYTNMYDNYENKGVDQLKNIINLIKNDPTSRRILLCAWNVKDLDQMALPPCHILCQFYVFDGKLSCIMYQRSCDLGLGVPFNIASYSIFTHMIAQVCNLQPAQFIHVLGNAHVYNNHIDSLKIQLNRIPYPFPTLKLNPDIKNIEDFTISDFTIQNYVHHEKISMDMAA

| SMILES | Ki |
| --- | --- |
| CC1N=C(N)N=C(N)N1c1ccc(Cl)c(Cl)c1 (stereo unspecified) [1-(3,4-Dichloro-phenyl)-6-methyl-1,6-dihydro-[1,3,5]triazine-2,4-diamine] | 1.4 nM |
| CC1(C)N=C(N)N=C(N)N1c1ccc(Br)cc1 [1-(4-Bromo-phenyl)-6,6-dimethyl-1,6-dihydro-[1,3,5]triazine-2,4-diamine] | 1.1 nM |
| CCC1N=C(N)N=C(N)N1c1ccc(Br)cc1 (stereo unspecified) [1-(4-Bromo-phenyl)-6-ethyl-1,6-dihydro-[1,3,5]triazine-2,4-diamine] | 5.7 nM |
| CC(C)C1N=C(N)N=C(N)N1c1ccc(Br)cc1 (stereo unspecified) [1-(4-Bromo-phenyl)-6-isopropyl-1,6-dihydro-[1,3,5]triazine-2,4-diamine] | 30 nM |
| CC1N=C(N)N=C(N)N1c1ccc(Br)cc1 (stereo unspecified) [1-(4-Bromo-phenyl)-6-methyl-1,6-dihydro-[1,3,5]triazine-2,4-diamine] | 5.7 nM |
| NC1=NC(c2ccccc2)N(c2ccc(Br)cc2)C(N)=N1 (stereo unspecified) [1-(4-Bromo-phenyl)-6-phenyl-1,6-dihydro-[1,3,5]triazine-2,4-diamine] | 2.9 nM |
| CCCC1N=C(N)N=C(N)N1c1ccc(Br)cc1 (stereo unspecified) [1-(4-Bromo-phenyl)-6-propyl-1,6-dihydro-[1,3,5]triazine-2,4-diamine] | 2.6 nM |
| NC1=NCN(c2ccc(Cl)cc2)C(N)=N1 [1-(4-Chloro-phenyl)-1,6-dihydro-[1,3,5]triazine-2,4-diamine] | 24.4 nM |
| CCC1N=C(N)N=C(N)N1c1ccc(Cl)cc1 (stereo unspecified) [1-(4-Chloro-phenyl)-6-ethyl-1,6-dihydro-[1,3,5]triazine-2,4-diamine] | 3.6 nM |
| CC(C)C1N=C(N)N=C(N)N1c1ccc(Cl)cc1 (stereo unspecified) [1-(4-Chloro-phenyl)-6-isopropyl-1,6-dihydro-[1,3,5]triazine-2,4-diamine] | 60.5 nM |
| CCCC1N=C(N)N=C(N)N1c1ccc(Cl)cc1 (stereo unspecified) [1-(4-Chloro-phenyl)-6-propyl-1,6-dihydro-[1,3,5]triazine-2,4-diamine] | 4.6 nM |
| NC1=NCN(c2ccc(F)cc2)C(N)=N1 [1-(4-Fluoro-phenyl)-1,6-dihydro-[1,3,5]triazine-2,4-diamine] | 270 nM |
| CC1(C)N=C(N)N=C(N)N1c1ccc(F)cc1 [1-(4-Fluoro-phenyl)-6,6-dimethyl-1,6-dihydro-[1,3,5]triazine-2,4-diamine] | 4.6 nM |
| NC1=NCN(c2ccccc2)C(N)=N1 [1-Phenyl-1,6-dihydro-[1,3,5]triazine-2,4-diamine] | 329 nM |
| CC1(C)N=C(N)N=C(N)N1c1ccccc1 [6,6-Dimethyl-1-phenyl-1,6-dihydro-[1,3,5]triazine-2,4-diamine] | 20 nM |
| CCCCC1N=C(N)N=C(N)N1c1ccc(Cl)cc1 (stereo unspecified) [6-Butyl-1-(4-chloro-phenyl)-1,6-dihydro-[1,3,5]triazine-2,4-diamine] | 3.7 nM |
| CCC1N=C(N)N=C(N)N1c1ccc(C)cc1 (stereo unspecified) [6-Ethyl-1-p-tolyl-1,6-dihydro-[1,3,5]triazine-2,4-diamine] | 5.9 nM |
| Cc1ccc(N2C(N)=NC(N)=NC2C(C)C)cc1 (stereo unspecified) [6-Isopropyl-1-p-tolyl-1,6-dihydro-[1,3,5]triazine-2,4-diamine] | 167 nM |
| Cc1ccc(N2C(N)=NC(N)=NC2C)cc1 (stereo unspecified) [6-Methyl-1-p-tolyl-1,6-dihydro-[1,3,5]triazine-2,4-diamine] | 23 nM |
| Cc1ccc(N2C(N)=NC(N)=NC2c2ccccc2)cc1 (stereo unspecified) [6-Phenyl-1-p-tolyl-1,6-dihydro-[1,3,5]triazine-2,4-diamine] | 7.7 nM |
| CCCC1N=C(N)N=C(N)N1c1ccc(C)cc1 (stereo unspecified) [6-Propyl-1-p-tolyl-1,6-dihydro-[1,3,5]triazine-2,4-diamine] | 13.7 nM |
